The source of these data is patent publication US8541596B2, “Inhibitors” (Probiodrug AG, priority 2010, dated 2013).

The target of the assay is hQC (Homo sapiens (Human), UniProt Q16769). Put plainly: QC inhibitor assay (fluorometric/spectrophotometric QC activity assay with inhibitor added). The assay is classed as biochemical. The note with it: bound. The procedure: All measurements were performed with a BioAssay Reader HTS-7000Plus for microplates (Perkin Elmer) at 30° C. QC activity was evaluated fluorometrically using H-Gln-βNA. The samples consisted of 0.2 mM fluorogenic substrate, 0.25 U pyroglutamyl aminopeptidase (Unizyme, Høsholm, Denmark) in 0.2 M Tris/HCl, pH 8.0 containing 20 mM EDTA and an appropriately diluted aliquot of QC in a final volume of 250 μl. Excitation/emission wavelengths were 320/410 nm. The assay reactions were initiated by addition of glutaminyl cyclase. QC activity was determined from a standard curve of /3-naphthylamine under assay conditions. One unit is defined as the amount of QC catalyzing the formation of 1 μmol pGlu-βNA from H-Gln-/3NA per minute under the described conditions.
In a second fluorometric assay, QC was activity determined using H-Gln-AMC as substrate. Reactions were carried out at 30° C. utilizing the NOVOStar reader for microplates (BMG labtechnologies). The samples consisted of varying concentrations of the fluorogenic substrate, 0.1 U pyroglutamyl aminopeptidase (Qiagen) in 0.05 M Tris/HCl, pH 8.0 containing 5 mM EDTA and an appropriately diluted aliquot of QC in a final volume of 250 μl. Excitation/emission wavelengths were 380/460 nm. The assay reactions were initiated by addition of glutaminyl cyclase. QC activity was determined from a standard curve of 7-amino-4-methylcoumarin under assay conditions. The kinetic data were evaluated using GraFit software.
This novel assay was used to determine the kinetic parameters for most of the QC substrates. […] Samples consisted of the respective QC substrate, 0.3 mM NADH, 14 mM a-Ketoglutaric acid and 30 U/ml glutamate dehydrogenase in a final volume of 250 μl. Reactions were started by addition of QC and persued by monitoring of the decrease in absorbance at 340 nm for 8-15 min.
The initial velocities were evaluated and the enzymatic activity was determined from a standard curve of ammonia under assay conditions. All samples were measured at 30° C., using either the […]uor Plus or the Sunrise (both from TECAN) reader for microplates. Kinetic data was evaluated using GraFit software.
For inhibitor testing, the sample composition was the same as described above, except for the putative inhibitory compound added. For a rapid test of QC-inhibition, samples contained 4 mM of the respective inhibitor and a substrate concentration at 1 KM. For detailed investigations of the inhibition and determination of K,-values, influence of the inhibitor on the auxiliary enzymes was investigated first. […] The inhibitory constant was evaluated by fitting the set of progress curves to the general equation for competitive inhibition using GraFit software.

Molecules are shown by their SMILES. pIC50: −log10 of the molar value.

hQC, sequence (Q16769 29-361): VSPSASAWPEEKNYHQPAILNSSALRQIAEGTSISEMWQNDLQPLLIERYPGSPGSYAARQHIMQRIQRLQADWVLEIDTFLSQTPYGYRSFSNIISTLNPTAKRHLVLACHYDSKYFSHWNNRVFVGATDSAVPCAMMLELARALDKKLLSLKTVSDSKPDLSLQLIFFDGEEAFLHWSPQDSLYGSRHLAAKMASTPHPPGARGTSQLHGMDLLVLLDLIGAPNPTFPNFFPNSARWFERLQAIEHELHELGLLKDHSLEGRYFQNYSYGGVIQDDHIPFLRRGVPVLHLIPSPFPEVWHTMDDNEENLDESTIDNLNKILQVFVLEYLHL

A word on the pIC50: it is −log10 of the IC50, conventionally taken in molar units. A higher pIC50 goes with a low IC50. The compound `c1ccc(CN(Cc2ccccc2)c2ccc3[nH]cnc3c2)cc1` [Example 10, N,N-Dibenzyl-1H-benzo[d]imidazol-5-amine] gave a pIC50 of more than 5.00.
In turn, `CSc1ccc(CNc2ccc3[nH]cnc3c2)cc1` [Example 11, N-(4-(Methylthio)benzyl)-1H-benzo[d]imidazol-5-amine] showed a pIC50 of more than 5.00.
Compound `N#Cc1ccc(CN(Cc2ccc(C#N)cc2)c2ccc3[nH]cnc3c2)cc1` [Example 19, N,N-Bis(4-cyanobenzyl)-1H-benzo[d]imidazol-5-amine] had a pIC50 of more than 5.00.
For `Brc1ccc(CN(Cc2ccc(Br)cc2)c2ccc3[nH]cnc3c2)cc1` [Example 27, N,N-Bis(4-bromobenzyl)-1H-benzo[d]imidazol-5-amine], the pIC50 is more than 5.00.
As for `c1ccc2sc(CN(Cc3nc4ccccc4s3)c3ccc4[nH]cnc4c3)nc2c1` [Example 34, N,N-Bis((benzo[d]thiazol-2-yl)methyl)-1H-benzo[d]imidazol-5-amine], the figure is more than 5.00.
With `Cc1ccc2cc(CN(Cc3ccc4nc(C)ccc4c3)c3ccc4[nH]cnc4c3)ccc2n1` [Example 37, N,N-Bis((2-methylquinolin-6-yl)methyl)-1H-benzo[d]imidazol-5-amine], the pIC50 is more than 5.00.
`Cc1c(F)c(F)c(CNc2ccc3[nH]cnc3c2)c(F)c1F` [Example 44, N-(2,3,5,6-Tetrafluoro-4-methylbenzyl)-1H-benzo[d]imidazol-5-amine] had a pIC50 of more than 5.00.
Compound `Clc1ccc2scc(CNc3ccc4[nH]cnc4c3)c2c1` [Example 49, N-((5-Chlorobenzo[b]thiophen-3-yl)methyl)-1H-benzo[d]imidazol-5-amine] showed a pIC50 of more than 5.00.
As to `CSc1ccc(CN(Cc2cc(F)cc(F)c2)c2ccc3[nH]cnc3c2)cc1` [Example 59, N-(3,5-Difluorobenzyl)-N-(4-(methylthio)benzyl)-1H-benzo[d]imidazol-5-amine], the pIC50 was more than 5.00.
The compound `CSc1ccc(CN(Cc2cc(F)c(F)c(F)c2)c2ccc3[nH]cnc3c2)cc1` [Example 60, N-(3,4,5-Trifluorobenzyl)-N-(4-(methylthio)benzyl)-1H-benzo[d]imidazol-5-amine] gave a pIC50 of more than 5.00.
`CSc1ccc(CN(Cc2c(F)c(F)c(C)c(F)c2F)c2ccc3[nH]cnc3c2)cc1` [Example 62, N-(2,3,5,6-Tetrafluoro-4-methylbenzyl)-N-(4-(methylthio)benzyl)-1H-benzo[d]imidazol-5-amine] gave a pIC50 of more than 5.00.
In turn, `CSc1ccc(CN(Cc2nc3ccccc3s2)c2ccc3[nH]cnc3c2)cc1` [Example 66, N-(4-(Methylthio)benzyl)-N-((benzo[d]thiazol-2-yl)methyl)-1H-benzo[d]imidazol-5-amine] had a pIC50 of more than 5.00.
For `CCc1ccc(CN(Cc2ccc(SC)cc2)c2ccc3[nH]cnc3c2)cc1` [Example 69, N-(4-(Methylthio)benzyl)-N-(4-ethylbenzyl)-1H-benzo[d]imidazol-5-amine], the pIC50 is more than 5.00.
Under `CCc1ccc(CN(Cc2cc(F)c(F)c(F)c2)c2ccc3[nH]cnc3c2)cc1` [Example 71, N-(3,4,5-Trifluorobenzyl)-N-(4-ethylbenzyl)-1H-benzo[d]imidazol-5-amine] stands more than 5.00.
Turning to `CCc1ccc(CN(Cc2ccc(C#N)cc2)c2ccc3[nH]cnc3c2)cc1` [Example 72, N-(4-Cyanobenzyl)-N-(4-ethylbenzyl)-1H-benzo[d]imidazol-5-amine], the pIC50 was more than 5.00.
Turning to `CCc1ccc(CN(Cc2nc3ccccc3s2)c2ccc3[nH]cnc3c2)cc1` [Example 74, N-(4-Ethylbenzyl)-N-((benzo[d]thiazol-2-yl)methyl)-1H-benzo[d]imidazol-5-amine], the pIC50 was more than 5.00.
The compound `COc1ccc(CN(Cc2ccc3nsnc3c2)c2ccc3[nH]cnc3c2)cc1` [Example 76, N-(4-Methoxybenzyl)-N-((benzo[c][1,2,5]thiadiazol-6-yl)methyl)-1H-benzo[d]imidazol-5-amine] showed a pIC50 of more than 5.00.
As for `Cc1ccc(CN(Cc2ccc(N(C)C)cc2)c2ccc3[nH]cnc3c2)cc1` [Example 78, N-(4-(Dimethylamino)benzyl)-N-(4-methylbenzyl)-1H-benzo[d]imidazol-5-amine], the pIC50 was more than 5.00.
The compound `CN(C)c1ccc(CN(Cc2ccc3nsnc3c2)c2ccc3[nH]cnc3c2)cc1` [Example 81, N-(4-(Dimethylamino)benzyl)-N-((benzo[c][1,2,5]thiadiazol-5-yl)methyl)-1H-benzo[d]imidazol-5-amine] showed a pIC50 of more than 5.00.
Compound `CCCCN(Cc1ccc(SC)cc1)c1ccc2[nH]cnc2c1` [Example 83, N-(4-(Methylthio)benzyl)-N-butyl-1H-benzo[d]imidazol-5-amine] showed a pIC50 of more than 5.00.
`COc1ccc(CN(Cc2ccccc2)c2ccc3nc[nH]c3c2)cc1` [Example 86, N-(4-Methoxybenzyl)-N-benzyl-3H-benzo[d]imidazol-5-amine] had a pIC50 of more than 5.00.
As for `COc1ccc(CN(CCCc2ccccc2)c2ccc3nc[nH]c3c2)cc1` [Example 89, N-(4-Methoxybenzyl)-N-(3-phenylpropyl)-3H-benzo[d]imidazol-5-amine], the pIC50 is more than 5.00.
